Biological target: T1, IRAK4 kinase (Homo sapiens, UniProt Q9NWZ3)
T1 sequence (Q9NWZ3 1-460): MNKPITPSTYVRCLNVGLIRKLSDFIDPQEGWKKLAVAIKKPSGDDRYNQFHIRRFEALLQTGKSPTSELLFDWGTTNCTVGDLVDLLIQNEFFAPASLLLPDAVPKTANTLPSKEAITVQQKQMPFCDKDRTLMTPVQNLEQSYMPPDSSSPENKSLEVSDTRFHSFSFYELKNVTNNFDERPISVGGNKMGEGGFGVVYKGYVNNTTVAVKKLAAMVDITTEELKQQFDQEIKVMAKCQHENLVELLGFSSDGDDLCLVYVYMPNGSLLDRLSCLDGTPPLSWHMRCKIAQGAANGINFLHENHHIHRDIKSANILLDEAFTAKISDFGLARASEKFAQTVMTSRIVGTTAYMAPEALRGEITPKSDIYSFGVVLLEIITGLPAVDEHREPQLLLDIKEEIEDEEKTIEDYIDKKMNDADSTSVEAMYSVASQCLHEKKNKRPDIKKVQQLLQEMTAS
Assay: IRAK4 kinase activity test (KinEASE-STK HTRF kit)
Assay type: biochemical
Settings: IRAK4 kinase inhibition, 7 μM ATP, 37° C. 120 min

CC(C)(O)c1cc2nn(C3CCN(CCCC4CCN(c5ccc6c(c5)C(=O)N(C5CCC(=O)NC5=O)C6=O)CC4)CC3)cc2cc1NC(=O)c1cccc(C(F)(F)F)n1 (stereo not shown) [Example 6, N-(2-(1-(3-(1-(2-(2,6-dioxopiperidin-3-yl)-1,3-dioxoisoindolin-5-yl)piperidin-4-yl)propyl)piperidin-4-yl)-6-(2-hydroxyprop-2-yl)-2H-indazol-5-yl)-6-(trifluoromethyl) pyridinecarboxamide]
IC50: 0.0557 µM
